Experimental data: patent US20130210024A1, “COMBINATION TREATMENT OF CANCER” (Agency for Science, Technology and Research, priority 2010, published 2013)
Residues, ends and D or L forms follow the SMILES beside them. *: point of attachment. Cbz = O=C(OCc1ccccc1)*

What was measured:
U2OS cells = experiment: FACS cell cycle / apoptosis analysis in U2OS cells, EZH2 RNA interference plus ADR or ETO; assay type: cell-based, human; details: control (non-knockdown) U2OS cells treated with the DNA damaging agent alone; FIG. 1A
Description: (§1) The human colorectal cancer HCT116 cells were kindly provided by Dr. Bert Vogelstein (John Hopkins University, MD). Other cell lines used in this study, including human osteosarcoma U2OS and Saos-2 and breast cancer MCF7 were obtained from the American Type Culture Collection (ATCC) and maintained in Dulbecco's modified Eagle medium (DMEM) supplemented with 10% fetal bovine serum (FBS) and antibiotics in a 37° C. humidified incubator containing 5% CO2. Human breast epithelial MCF10A cells were obtained from ATCC and maintained as recommended (Kadota et al 2010). Adramycin (ADR), Etopside (ETO), Nocodazole (Noco), proteasomal inhibitors MG132 and MG115 were purchased from Sigma-Aldrich.
Specific siRNA oligos targeting EZH2 (as described above) and FBXO32 (FBXO32 siRNA: 5_-GTCACATCCTTTCCTGGAA-3_) mRNAs were used. The non-targeting control was purchased from Dharmacon (Lafayett, Colo.). For EZH2 knockdown, a sequential twice knockdown is performed to secure efficient gene silencing. […]
Cells were harvested and fixed in 70% ethanol. […] The stained cells were analyzed for DNA content by fluorescence-activated cell sorting (FACS) in a FACS Calibur (Becton Dickinson Instrument, San Jose, Calif.). Cell cycle fractions were quantified using the CellQuest software (Becton Dickinson). […]

[1] = system: U2OS, HCT116, Saos-2 and p53-deficient HCT116 cells; experiment: FACS cell cycle / apoptosis analysis, DZNep combined with ADR or ETO in cancer cells; assay type: cell-based, human
Description: as §1
(§2) Cells were harvested and fixed in 70% ethanol. Fixed cells were stained with propidium iodide (50 μg/mL) after treatment with RNase (100 μg/mL). The stained cells were analyzed for DNA content by fluorescence-activated cell sorting (FACS) in a FACS Calibur (Becton Dickinson Instrument, San Jose, Calif.). Cell cycle fractions were quantified using the CellQuest software (Becton Dickinson). For synchronization experiment, HCT116 cells expressing FBXO32 or empty vector were treated with Nocodazole (400 ng/ml) for 16 h, mitotically arrested cells were treated with ADR and then subject to FACS for cell cycle analysis.

EZH2 complex = details: cancer cells; previously shown (Tan et al., 2007); cited from earlier work
FBXO32, p21, p-Chk1 = experiment: Immunoblot analysis of FBXO32, p21 and Chk1 phosphorylation after DZNep with ADR or ETO; assay type: cell-based, human
Description: as §1
Protein extracts were prepared by lysis in RIPA buffer containing (50 mM Tris-HCl, pH 7.4, 150 mM NaCl, 1% Nonidet P-40, 0.5% sodium deoxycholate, 0.1% SDS, 1 mM EDTA, 50 mM NaF, 0.1 mM Na3VO4) and protease inhibitor cocktail (Roch). Lysates were resolved by SDS-PAGE, transferred onto a immobilon membrane (Millipore) and probed with indicated antibodies. For co-immunoprecipitation experiments, cells were lysed and incubated with the indicated antidodies and protein G-seperose beads overnight at 4° C. Beads were washed four times with lysis buffer. The bound proteins were dissolved in SDS sample buffer, resolved by SDS-PAGE, and immunoblotted with the indicated antibodies. Where indicated, proteosome inhibitors MG-132 (5 μM) or MG-115 (20 μM) were used to treat cells for 8 h before protein extraction. Antibodies used in this study include: anti-EZH2 (Cell Signaling), anti-p21 (Santa Cruz), anti-FBXO32 (Santa Cruz), anti-p53 (Santa Cruz), anti-MDM2 (Santa Cruz), anti-phospho-Chk1 (Cell signaling), anti-Chk1 (Santa Cruz), anti-phospho-Chk2 (Cell signaling), anti-Chk2 (Upstate), anti-H3 (Cell signaling), anti-PARP (Cell Signaling), anti-H3K27me3 (Upstate), anti-actin mouse monoclonal (Sigma).

[2] = system: non-transformed MCF-10A, IMR90 and RWEP cells; experiment: ADR or ETO-induced apoptosis in non-transformed cells with DZNep; assay type: cell-based, human; details: data not shown
Description: as §1, §2

p21 mRNA = p21 mRNA level (Taqman quantitative real-time PCR); assay type: cell-based, human; details: DZNep with ADR or ETO; data not shown
Description: Total RNA was isolated using Trizol (Invitrogen) and purified with the RNeasy Mini Kit (Qiagen). Reverse transcription was performed using an RNA Amplification kit (Ambion). Quantitative real-time PCR was assessed using the PRISM 7900 Sequence Detection System (Applied Biosystems) with specific probes from Applied Biosystem. Samples were normalized to the levels of GAPDH mRNA.

COc1cccc2c1C(=O)c1c(O)c3c(c(O)c1C2=O)C[C@@](O)(C(=O)CO)C[C@@H]3O[C@H]1C[C@H](N)[C@H](O)[C@H](C)O1 [Adriamycin]
cell cycle arrest / apoptosis in control cells (U2OS cells): mainly cell cycle arrested with little apoptosis

COc1cc([C@@H]2c3cc4c(cc3[C@@H](O[C@@H]3O[C@@H]5CO[C@@H](C)O[C@H]5[C@H](O)[C@H]3O)[C@H]3COC(=O)[C@H]23)OCO4)cc(OC)c1O [Etoposide]
cell cycle arrest / apoptosis in control cells (U2OS cells): mainly cell cycle arrested with little apoptosis

Nc1nccc2c1ncn2[C@@H]1C=C(CO)[C@@H](O)[C@H]1O [DZNep, 3-Deazaneplanocin A]
effect of DZNep on DNA damage-induced apoptosis, p21 and p-Chk1 when FBXO32 is knocked down ([1]; HCT116 cells with FBXO32 knockdown, FIGS. 4E, 4F): largely abolished when FBXO32 was knockdown
checkpoints activation (FACS) ([1]; combination of DZNep with ADR or ETO, HCT116 or U2OS cells, FIG. 4A): abrogates checkpoints activation
checkpoints (FACS), p53-deficient cells ([1]; combination of DZNep with ADR or ETO, p53-deficient HCT116 or Saos-2 cells, FIG. 4C): abrogates checkpoints
effect on ADR or ETO-induced cell cycle arrest / apoptosis ([1]; pretreatment with DZNep, then ADR or ETO, p53-proficient U2OS and HCT116, p53-deficient Saos-2 and HCT116 cells, FIGS. 4A, 4C): converted ADR or ETO-induced cell cycle arrest to marked apoptosis
depletion of EZH2 complex (EZH2 complex): can deplete EZH2 complex
p21 and/or p-Chk1 induction by ADR or ETO (FBXO32, p21, p-Chk1; DZNep with ADR or ETO, U2OS, HCT116, Saos-2, p53-deficient HCT116, FIGS. 4B, 4D): largely abolished
FBXO32 induction (FBXO32, p21, p-Chk1; EZH2 depletion by DZNep, U2OS, HCT116, Saos-2, p53-deficient HCT116, FIGS. 4B, 4D): accompanied with FBXO32 induction
ADR or ETO-induced p21 accumulation and Chk1 phosphorylation (FBXO32, p21, p-Chk1; combination of DZNep with ADR or ETO, HCT116 and U2OS cells, FIG. 4B): abolishes
DNA damage induced p21 accumulation and Chk1 phosphorylation, p53-deficient cells (FBXO32, p21, p-Chk1; combination of DZNep with ADR or ETO, p53-deficient HCT116 and Saos-2 cells, FIG. 4D): abolishes
promotion of ADR or ETO-induced apoptosis in non-transformed cells [2]: did not promote
p21 mRNA as cause of p21 protein downregulation (p21 mRNA): not due to a decrease in p21 mRNA

CC(C)C[C@@H](C=O)NC(=O)[C@H](CC(C)C)NC(=O)[C@H](CC(C)C)NC(=O)OCc1ccccc1 [MG132] (Cbz-Leu-Leu-Leu-aldehyde)
p21 protein downregulation by DZNep with ADR or ETO, effect of proteasome inhibitor (FBXO32, p21, p-Chk1; MG132 added, data not shown): prevented
